Test results published in ChEMBL document CHEMBL3046934, “Effectiveness of thiamethoxam and imidacloprid seed treatments against Bemisia tabaci (Hemiptera: Aleyrodidae) on cotton” (Pest Manag Sci, 2011).
The source made the active and inactive calls.

Columns and labels:
[1] = system: Bemisia tabaci; assay: Insecticidal activity against adult Bemisia tabaci (sweet potato whitefly) infested cotton leaves assessed as decrease in egg production at 0.375 mg ai/seed measured 10 to 40 days post germination under green house conditions relative to untreated control; assay type: functional, organism-based
[2] = system: Bemisia tabaci; assay: Insecticidal activity against adult Bemisia tabaci (sweet potato whitefly) infested cotton leaves assessed as effect on laid eggs at 0.375 mg ai/seed measured 10 to 40 days post germination under laboratory conditions relative to untreated control; assay type: functional, organism-based
[3] = system: Bemisia tabaci; assay: Insecticidal activity against adult Bemisia tabaci (sweet potato whitefly) infested cotton leaves assessed as increase in mortality at 0.375 mg ai/seed measured 10 to 40 days post germination under green house conditions relative to untreated control; assay type: functional, organism-based
[4] = system: Bemisia tabaci; assay: Insecticidal activity against nymph stage of Bemisia tabaci (sweet potato whitefly) infested cotton leaves assessed as mortality at 0.375 mg ai/seed measured 10 to 40 days post germination under laboratory conditions relative to untreated control; assay type: functional, organism-based
[5] = system: Bemisia tabaci; assay: Insecticidal activity against nymph stage of Bemisia tabaci (sweet potato whitefly) infested cotton leaves assessed as increase in mortality at 0.375 mg ai/seed measured 2 weeks post sowing to 9 weeks under field conditions relative to untreated control; assay type: functional, organism-based
[6] = system: Bemisia tabaci; assay: Insecticidal activity against adult Bemisia tabaci (sweet potato whitefly) infested cotton leaves assessed as increase in mortality at 0.375 mg ai/seed measured 10 to 40 days post germination under laboratory conditions relative to untreated control; assay type: functional, organism-based
[7] = system: Bemisia tabaci; assay: Insecticidal activity against nymph stage of Bemisia tabaci (sweet potato whitefly) infested cotton leaves assessed as increase in mortality at 0.375 mg ai/seed measured 10 to 40 days post germination under green house conditions relative to untreated control; assay type: functional, organism-based
[8] = system: Bemisia tabaci; assay: Insecticidal activity against adult Bemisia tabaci (sweet potato whitefly) infested cotton leaves assessed as decrease in egg deposition at 0.375 mg ai/seed measured 10 to 40 days post germination under laboratory conditions relative to untreated control; assay type: functional, organism-based
[9] = system: Bemisia tabaci; assay: Insecticidal activity against adult Bemisia tabaci (sweet potato whitefly) infested cotton leaves assessed as increase in mortality at 0.375 mg ai/seed measured 2 weeks post sowing to 9 weeks under field conditions relative to untreated control; assay type: functional, organism-based
[10] = system: Leaf; assay: Drug uptake in Gossypium hirsutum (cotton) leaf at 0.375 mg ai/seed measured 10 days post germination under green house conditions; assay type: ADME; details: in vivo, other, 240 h
[11] = system: Cotyledon; assay: Drug uptake in Gossypium hirsutum (cotton) cotyledon at 0.375 mg ai/seed measured 10 days post germination under green house conditions; assay type: ADME; details: in vivo, other, 240 h
[12] = system: Bemisia tabaci; assay: Insecticidal activity against adult Bemisia tabaci (sweet potato whitefly) infested cotton leaves assessed as increase in mortality at 0.342 mg ai/seed measured 10 to 40 days post germination under laboratory conditions relative to untreated control; assay type: functional, organism-based
[13] = system: Bemisia tabaci; assay: Insecticidal activity against adult Bemisia tabaci (sweet potato whitefly) infested cotton leaves assessed as decrease in egg deposition at 0.342 mg ai/seed measured 10 to 40 days post germination under laboratory conditions relative to untreated control; assay type: functional, organism-based
[14] = system: Bemisia tabaci; assay: Insecticidal activity against adult Bemisia tabaci (sweet potato whitefly) infested cotton leaves assessed as increase in mortality at 0.342 mg ai/seed measured 10 to 40 days post germination under green house conditions relative to untreated control; assay type: functional, organism-based
[15] = system: Leaf; assay: Drug uptake in Gossypium hirsutum (cotton) leaf at 0.342 mg ai/seed measured 10 days post germination under green house conditions; assay type: ADME; details: in vivo, other, 240 h
[16] = system: Bemisia tabaci; assay: Insecticidal activity against adult Bemisia tabaci (sweet potato whitefly) infested cotton leaves assessed as effect on laid eggs at 0.342 mg ai/seed measured 10 to 40 days post germination under laboratory conditions relative to untreated control; assay type: functional, organism-based
[17] = system: Bemisia tabaci; assay: Insecticidal activity against nymph stage of Bemisia tabaci (sweet potato whitefly) infested cotton leaves assessed as increase in mortality at 0.342 mg ai/seed measured 10 to 40 days post germination under laboratory conditions relative to untreated control; assay type: functional, organism-based
[18] = system: Bemisia tabaci; assay: Insecticidal activity against adult Bemisia tabaci (sweet potato whitefly) infested cotton leaves assessed as decrease in egg production at 0.342 mg ai/seed measured 10 to 40 days post germination under green house conditions relative to untreated control; assay type: functional, organism-based
[19] = system: Cotyledon; assay: Drug uptake in Gossypium hirsutum (cotton) cotyledon at 0.342 mg ai/seed measured 10 days post germination under green house conditions; assay type: ADME; details: in vivo, other, 240 h
[20] = system: Bemisia tabaci; assay: Insecticidal activity against adult Bemisia tabaci (sweet potato whitefly) infested cotton leaves assessed as increase in mortality at 0.342 mg ai/seed measured 2 weeks post sowing to 9 weeks under field conditions relative to untreated control; assay type: functional, organism-based
[21] = system: Bemisia tabaci; assay: Insecticidal activity against nymph stage of Bemisia tabaci (sweet potato whitefly) infested cotton leaves assessed as increase in mortality at 0.342 mg ai/seed measured 2 weeks post sowing to 9 weeks under field conditions relative to untreated control; assay type: functional, organism-based
[22] = system: Bemisia tabaci; assay: Insecticidal activity against nymph stage of Bemisia tabaci (sweet potato whitefly) infested cotton leaves assessed as increase in mortality at 0.342 mg ai/seed measured 10 to 40 days post germination under green house conditions relative to untreated control; assay type: functional, organism-based

O=[N+]([O-])/N=C1\NCCN1Cc1ccc(Cl)nc1
active: Activity [1] | Activity [3] | Activity [4] | Activity [5] | Activity [6] | Activity [7] | Activity [8] | Activity [9]
inactive: Activity [2]

O=[N+]([O-])NC1=NCCN1Cc1ccc(Cl)nc1 [IMIDACLOPRID]
Active: Drug uptake [10] | Drug uptake [11]

CN1COCN(Cc2cnc(Cl)s2)/C1=N\[N+](=O)[O-] [THIAMETHOXAM]
inactive: Activity [16]
Active: Drug uptake [15] | Drug uptake [19]
active: Activity [12] | Activity [13] | Activity [14] | Activity [17] | Activity [18] | Activity [20] | Activity [21] | Activity [22]
